Measured values reported in patent US20060205822A1, “1-Aminocyclohexane derivatives for the treatment of multiple sclerosis, emotional lability and pseudobulbar affect” (Forest Laboratories, Inc., priority 2004, published 2006).

Experiments:
[1] = tested on: acquired pendular nystagmus; settings: physical symptom of multiple sclerosis; cited from earlier work
[2] = tested on: NMDA receptor; settings: noncompetitive antagonist; cited from earlier work
[3] = tested on: thermal hyperalgesia and mechanical allodynia; settings: relatively high doses; without obvious effects on motor reflexes; cited from earlier work
[4] = tested on: adult rats; settings: cited from earlier work
[5] = tested on: spastic hind limbs of EAE mice; test: Spasticity (resistance to hindlimb flexion against a strain gauge) in the EAE model in mice; type: in vivo, ABH mice; parameters: Resistance to flexion, Diff of Means: unit not given here
Text: Induction of EAE. Induction of EAE in animal models is well known in the art. (Raine, Chapter 16, Handbook of Clinical Neurology, vol. 3(47): Demyelinating Diseases, Koetsier, ed., (Elsevier Science Publishers 1985). In the present protocol, 6-8 week ABH mice are immunized with mouse spinal cord homogenate in Freund's complete adjuvant on day 0 & 7. (Baker et al. 1990. J. Neuroimmunol 28:261 O'Neill et al 1992. J. Neuroimmunol. 38:53). Animals will develop relapsing remitting episodes of paralysis at approximately 3-4 week intervals. These will be monitored daily from day 11 onwards to ensure severity levels of paralysis and maintained with humane limits according to the Home Office, Animals (Scientific Procedures) Act […]. Spasticity (stiff hind limbs) after 2-3 relapse episodes (approximately 80-120 days post-induction) will be allowed to develop. Animals with visually spastic limbs will be selected for assessment of the TEST compound.
Resistance to flexion against a strain gauge will be the primary assessment (Baker et al. 2000. Nature), secondary outcome measures will be the presence or absence of spastic tails.
Spasticity. The “stiffness” of spastic limbs is measured using a purpose built strain gauge, and assessed by the resistance force against hindlimb flexion. The limb is extended manually twice prior to measurement of each limb. Limbs showing severe crossing or flexion will not be analyzed. The signal is amplified and digitized using DAS16 card (Amplicon, Brighton UK.) and acquired using Dacquire V10 software and analyzed using Spike 2 software (Baker et al 2000). Left and right hindlimbs are analyzed alternately and typically 5-8 readings per limb were measured at each time point. The mean values will be calculated and converted to forces in Newtons. Data will be analyzed using one-way repeated measures analysis of variance (ANOVA) incorporating Student-Newman-Keuls posthoc test. Differences to baseline will also be compared using Paired t tests.
Administration of compound. The TEST compounds are dissolved in vehicle (to be supplied by the SPONSOR-preferably this will be a saline solution) using doses (to be supplied by the SPONSOR). These will be delivered by the intravenous, intraperitoneal or oral route (to be supplied by the sponsor). Resistance to flexion will be assessed at 10 minutes 30 minutes and 60 minutes following intravenous, intraperitoneal injection, 30, 60 and 90 minutes after oral administration. (Escalating doses (up to three) may be used in the same cohort of animals following wash-out to allow for direct comparison of the dose response).

CC12CC3CC(C)(C1)CC(N)(C3)C2 [Memantine, 1-amino-3,5-dimethyl adamantane]
Treatment of acquired pendular nystagmus [1]: effective | Affinity for the NMDA receptor [2]: moderate affinity | Thermal hyperalgesia and mechanical allodynia [3]: selectively block thermal hyperalgesia and mechanical allodynia | Formation of hippocampal long-term potentiation [4]: enhance the formation of hippocampal long-term potentiation | Spatial memory abilities [4]: improve spatial memory abilities

CC1(C)CC(C)(C)CC(C)(N)C1 [Neramexane, 1-amino-1,3,3,5,5-pentamethylcyclohexane]
Affinity for the NMDA receptor [2]: moderate affinity | Thermal hyperalgesia and mechanical allodynia [3]: selectively block thermal hyperalgesia and mechanical allodynia | Resistance to flexion, Diff of Means ([5]; 3.1 mg/kg, 0 min vs. 10 min, P<0.001): 0.171 | Resistance to flexion, Diff of Means ([5]; 3.1 mg/kg, 0 min vs. 30 min, P<0.001): 0.142 | Resistance to flexion, Diff of Means ([5]; 3.1 mg/kg, 0 min vs. 60 min, P<0.001): 0.218 | Resistance to flexion, Mean ([5]; 3.1 mg/kg, 10 min post-injection, baseline 0 min 0.593, N=13): 0.422 N | Resistance to flexion, Diff of Means ([5]; 3.1 mg/kg, 10 min vs. 60 min, P 0.228, Do Not Test): 0.0474 | Resistance to flexion, Mean ([5]; 3.1 mg/kg, 30 min post-injection, baseline 0 min 0.593, N=13): 0.451 N | Resistance to flexion, Diff of Means ([5]; 3.1 mg/kg, 30 min vs. 10 min, P 0.453, Do Not Test): 0.0293 | Resistance to flexion, Diff of Means ([5]; 3.1 mg/kg, 30 min vs. 60 min, P 0.130, not significant): 0.0767 | Resistance to flexion, Mean ([5]; 3.1 mg/kg, 60 min post-injection, baseline 0 min 0.593, N=13): 0.374 N | Resistance to flexion, Diff of Means ([5]; 6.2 mg/kg, 0 min vs. 10 min, P 0.999, not significant): 0.0000691 | Resistance to flexion, Diff of Means ([5]; 6.2 mg/kg, 0 min vs. 30 min, P 0.013): 0.117 | Resistance to flexion, Diff of Means ([5]; 6.2 mg/kg, 0 min vs. 60 min, P<0.001): 0.172 | Resistance to flexion, Mean ([5]; 6.2 mg/kg, 10 min post-injection, baseline 0 min 0.567, N=11): 0.567 N | Resistance to flexion, Diff of Means ([5]; 6.2 mg/kg, 10 min vs. 30 min, P 0.005): 0.117 | Resistance to flexion, Diff of Means ([5]; 6.2 mg/kg, 10 min vs. 60 min, P<0.001): 0.172 | Resistance to flexion, Mean ([5]; 6.2 mg/kg, 30 min post-injection, baseline 0 min 0.567, N=11): 0.450 N | Resistance to flexion, Diff of Means ([5]; 6.2 mg/kg, 30 min vs. 60 min, P 0.162, not significant): 0.0549 | Resistance to flexion, Mean ([5]; 6.2 mg/kg, 60 min post-injection, baseline 0 min 0.567, N=11): 0.395 N | Resistance to flexion, Diff of Means ([5]; 12.3 mg/kg, 0 min vs. 10 min, P<0.001): 0.114 | Resistance to flexion, Diff of Means ([5]; 12.3 mg/kg, 0 min vs. 30 min, P<0.001): 0.103 | Resistance to flexion, Diff of Means ([5]; 12.3 mg/kg, 0 min vs. 60 min, P<0.001): 0.189 | Resistance to flexion, Mean ([5]; 12.3 mg/kg, 10 min post-injection, baseline 0 min 0.453, N=14): 0.339 N | Resistance to flexion, Diff of Means ([5]; 12.3 mg/kg, 10 min vs. 60 min, P 0.007): 0.0757 | Resistance to flexion, Mean ([5]; 12.3 mg/kg, 30 min post-injection, baseline 0 min 0.453, N=14): 0.350 N | Resistance to flexion, Diff of Means ([5]; 12.3 mg/kg, 30 min vs. 10 min, P 0.693, not significant): 0.0106 | Resistance to flexion, Diff of Means ([5]; 12.3 mg/kg, 30 min vs. 60 min, P 0.007): 0.0863 | Resistance to flexion, Mean ([5]; 12.3 mg/kg, 60 min post-injection, baseline 0 min 0.453, N=14): 0.263 N | Level of hind limb spasticity ([5]; all 3 doses (3.1, 6.2, 12.3 mg/kg), affected EAE mice): reduced the level of hind limb spasticity
